The structures appear in SMILES notation.

The test has as its target T1, bromodomain of BRD9 (GST fusion) / acetylated histone H4 peptide (BET Bromodomain Ligand) (Homo sapiens, UniProt Q9H8M2).
T1 construct: A GST fusion protein of the bromodomain of BRD9; purchased BPS Biosciences #32519
T1 sequence (Q9H8M2 136-240 limits assumed): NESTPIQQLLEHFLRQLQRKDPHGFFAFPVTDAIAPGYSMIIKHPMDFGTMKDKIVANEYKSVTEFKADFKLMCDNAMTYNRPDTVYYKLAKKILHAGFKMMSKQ
As to the kind of experiment: BRD9-H4 Tetraacetylated Peptide Inhibition AlphaScreen. Type of test: binding. An excerpt:
BRD9-H4 Tetraacetylated Peptide Inhibition AlphaScreen
This assay is used to identify compounds which inhibit the interaction of the bromodomain of BRD9 with a tetra-acetylated peptide based on the sequence of histone H4 (termed the “BET Bromodomain ligand” as purchased from BPS Biosciences).
A GST fusion protein of the bromodomain of BRD9 and an acetylated histone H4 peptide (the “BET Bromodomain Ligand” are purchased as part of the BRD9 Inhibitor Screening Assay Kit at BPS Biosciences (Cat. Number: #32519)
AlphaScreen Beads (Perkin Elmer):
AlphaLISA Glutathione Acceptor Beads
AlphaScreen Streptavidin Donor Beads
Assay plates: Proxiplate-384 PLUS, white (PerkinElmer)
The assay is done in a darkened room below 100 Lux.
Compounds are dispensed onto assay plates using an Access Labcyte Workstation with the Labcyte Echo 550 from a DMSO solution. For the chosen highest concentration of 100 μM, 150 nl of compound solution are transferred from a 10 mM DMSO solution. A series of 11 concentrations is transferred for each compound at which each concentration is five-fold lower than the previous one (i.e. 100 μM, 20 μM, 4 μM, 0.8 μM, etc). DMSO is added such that every well has a total of 150 nl of DMSO.
15 μl of the resulting mix are added to the assay plates that contain 150 nl of the compounds. After 60 min at room temperature the signal is measured in a PerkinElmer Envision HTS Multilabel Reader using the AlphaScreen specifications from PerkinElmer.
Each plate contains negative controls where biotinylated BET Bromodomain Ligand and GST-BRD9 are left out and replaced by assay buffer. Negative control values are entered as low basis value when using the software GraphPad Prism for calculations.
Consider `Cc1ccc(-c2cn(C)c(=O)c3cccc(O)c23)cc1NS(C)(=O)=O` [II-36, N-[5-(5-Hydroxy-2-methyl-1-oxo-1,2-dihydro-isoquinolin-4-yl)-2-methyl-phenyl]-methanesulfonamide], for which the IC50 came out at 5.25 µM. This counts as single-digit micromolar. `Cc1ccc(-c2cn(C)c(=O)c3cc(N)ccc23)cc1NS(C)(=O)=O` [II-37, N-[5-(7-Amino-2-methyl-1-oxo-1,2-dihydro-isoquinolin-4-yl)-2-methyl-phenyl]-methanesulfonamide] registered an IC50 of 2.69 µM. The molecule `Cc1ccc(-c2cn(C)c(=O)c3cccc(N)c23)cc1NS(C)(=O)=O` [II-38, N-[5-(5-amino-2-methyl-1-oxo-1,2-dihydro-isoquinolin-4-yl)-2-methyl-phenyl]-methanesulfonamide] displayed an IC50 of 8.42 µM. `CNc1cccc2c(=O)n(C)cc(-c3ccc(C)c(NS(C)(=O)=O)c3)c12` [II-39, N-[2-Methyl-5-(2-methyl-5-methylamino-1-oxo-1,2-dihydro-isoquinolin-4-yl)-phenyl]-methanesulfonamide] yielded an IC50 of 7.83 µM. The same measure for `CNc1ccc2c(-c3ccc(C)c(NS(C)(=O)=O)c3)cn(C)c(=O)c2c1` [II-40]: 5.44 µM. Then `CCn1cc(-c2ccc(C)c(NS(C)(=O)=O)c2)c2cc[nH]c2c1=O` [III-1, N-[5-(6-Ethyl-7-oxo-6,7-dihydro-1H-pyrrolo[2,3-c]pyridin-4-yl)-2-methyl-phenyl]-methanesulfonamide], with 0.645 µM.

Values taken from patent US11319318B2, “Pyridinones and isoquinolinones as inhibitors of the bromodomain BRD9” (Boehringer Ingelheim International GmbH, priority 2015, dated 2022).
